In patent publication US12203909B2, “Compositions for conjugating a sulfonephthalein dye to a substrate” (priority 2018, dated 2025):
Where two headings read alike, the source gives them in different places.

What was measured:
[1] = UV-Vis spectrum of HPTS as a function of pH, pH response range; assay type: physicochemical; conditions: RGB detectors with maximum sensitivity at 460 nm/520 nm/630 nm
Description: An example of modification of 8-hydroxypyrene-1,3,6-trisulfonic acid as its sodium salt is shown below. The 8-hydroxypyrene-1,3,6-trisulfonic acid can also be modified as a salt of a cation other than sodium, such as potassium or ammonium. This compound is suitable as a pH sensitive probe for pH range of 7.0-8.0 for red, green and blue combination photodiode (RGB) detectors with maximum sensitivity at 460 nm/520 nm/630 nm.
The UV-Vis spectrum of HPTS as a function of pH is shown in FIG. 7, while the pH response range for this dye at 454 nm is shown in FIG. 8.

[2] = SPD derivative UV-Vis spectral and chemical properties (Table 1); assay type: physicochemical; conditions: for λ1, nm (SPD^−1 form): pH sensitive wavelength of SPD^−1
Description: The HA and A^− concentrations are related by the Henderson-Hasselbalch equation: pH=pKa+log[A^−]/[H—A] where Ka is the acid dissociation constant, pKa is −log Ka, and [A^−] and [HA] are the concentrations of dissociated and undissociated dye acid form, respectively.
Such compounds are commonly used as pH sensitive indicators for determination of pH of aqueous solutions. […] The structure of suitable SPDs and their conjugate bases are shown generically below, and their spectral and chemical properties are reported in Table 1.
Unmodified SPDs have been used for the preparation of pH sensitive indicators adsorbed on the surface of suitable polymeric materials, such as cellulose based materials. […] In general, substitution with electron acceptor substituents (e.g., Cl, Br in the C2/C5 positions) results in a pKa shift to a lower pH range relative to PR, and substitution with electron donor substituents (e.g., C1-C3 alkyl in the C2, C4 and C5 positions) results in a pKa shift to a higher pH range. […] Examples of such SPDs include bromocresol purple and bromothymol blue.
Measurement of absorbance at specific wavelengths allows for the determination of the concentrations of the acidic and basic forms of the dye. These wavelengths are typically selected based upon the absorbance maxima for each specific dye, although other wavelengths can be employed albeit with diminished sensitivity.

[3] = SPD^−1/SPD^−2 transition, cited from earlier work
[4] = pH sensitive wavelength of SPD^−2

| SMILES | λ1, nm (SPD^−1 form) [2] [nm] | λ2, nm (SPD^−2 form) [2, 4] [nm] | pKa* SPD^−1/SPD^−2 [3] | also measured |
| --- | --- | --- | --- | --- |
| O=S(=O)(O)c1cc(O)c2ccc3c(S(=O)(=O)O)cc(S(=O)(=O)O)c4ccc1c2c34 [8-hydroxypyrene-1,3,6-trisulfonic acid] |  |  |  | pH range for which suitable as pH sensitive probe [1]: 7.0-8.0 |
| Cc1c(C2(c3cc(Br)c(O)c(Br)c3C)OS(=O)(=O)c3ccccc32)cc(Br)c(O)c1Br [Bromocresol Green (BrCrG), Bromocresol Green] | 432 | ~614 | 4.7 |  |
| Cc1cc(C2(c3cc(C)c(O)c(Br)c3)OS(=O)(=O)c3ccccc32)cc(Br)c1O [Bromocresol Purple (BrCrP), Bromocresol Purple] | 432 | 589 | 6.3 |  |
| O=S1(=O)OC(c2cc(Br)c(O)c(Br)c2)(c2cc(Br)c(O)c(Br)c2)c2ccccc21 [Bromophenol Blue] | 436 | 591 | 4.1 |  |
| Cc1c(C2(c3cc(C(C)C)c(O)c(Br)c3C)OS(=O)(=O)c3ccccc32)cc(C(C)C)c(O)c1Br [Bromothymol Blue] | 427 | 602 | 7.1 |  |
| O=S1(=O)OC(c2ccc(O)c(Cl)c2)(c2ccc(O)c(Cl)c2)c2ccccc21 [Chlorophenol Red (ClPR), Chlorophenol Red] | 436 | 575 | 6.7 |  |
| Cc1cc(C2(c3ccc(O)c(C)c3)OS(=O)(=O)c3ccccc32)ccc1O [Cresol Red (CR), Cresol Red] | 430 |  |  |  |
| Cc1c(C2(c3cc(C(C)C)c(O)c(CN(CC(=O)[O-])CC(=O)[O-])c3C)OS(=O)(=O)c3ccccc32)cc(C(C)C)c(O)c1CN(CC(=O)[O-])CC(=O)[O-].[Na+].[Na+].[Na+].[Na+] [Methylthymol Blue] | 442 | 614 | 6.0-13.0 |  |
| O=S1(=O)OC(c2ccc(O)cc2)(c2ccc(O)cc2)c2ccccc21 [Phenol Red (PR), Phenol Red] | 431 | 557 | 7.4 | pKa (Table 3, PR derivatives): 7.4; λ1, nm (Table 3, PR derivatives): 431 nm; λ2, nm (Table 3, PR derivatives): 557 nm; λ1^pH 6/pH 9 Abs ratio (calculated as OD 430 nm pH 6.0/OD 430 nm pH 9.0): 5.1; λ2, nm (SPD^−2 form) ([2]; pH sensitive wavelength of SPD^−2, listed as PR): approximately 557 nm; pKa* SPD^−1/SPD^−2 ([3]; listed as Phenol red (PR)): approximately 7.4 |
| Cc1cc(O)c(C(C)C)cc1C1(c2cc(C(C)C)c(O)cc2C)OS(=O)(=O)c2ccccc21 [Thymol Blue] | 432 | 595 | 8.9 |  |
| Cc1cc(C2(c3cc(C)c(O)cc3C)OS(=O)(=O)c3ccccc32)c(C)cc1O [Xylenol Blue] | 436 | 594 | 8.5 |  |
| Cc1cc(C2(c3cc(C)c(O)c(CN(CC(=O)O)CC(=O)O)c3)OS(=O)(=O)c3ccccc32)cc(CN(CC(=O)O)CC(=O)O)c1O [Xylenol Orange] | 436 | 583 | 6.0-11.7 |  |
| Cc1cc(O)ccc1C1(c2ccc(O)cc2C)OS(=O)(=O)c2ccccc21 [m-Cresol Purple (mCrP), m-Cresol Purple] | 432 | 578 | 8.3 |  |
